Measurements reported in patent US20250090540A1, “PI3K-ALPHA INHIBITORS AND METHODS OF USE THEREOF” (Relay Therapeutics, Inc., priority 2021, published 2025).

Biological target: H1047R PIK3CA enzyme (Homo sapiens, UniProt P42336, H1047R)
Test: ADP-Glo Biochemical PIK3CA Kinase Assay

H1047R PIK3CA enzyme, sequence (P42336 whole entry H1047R): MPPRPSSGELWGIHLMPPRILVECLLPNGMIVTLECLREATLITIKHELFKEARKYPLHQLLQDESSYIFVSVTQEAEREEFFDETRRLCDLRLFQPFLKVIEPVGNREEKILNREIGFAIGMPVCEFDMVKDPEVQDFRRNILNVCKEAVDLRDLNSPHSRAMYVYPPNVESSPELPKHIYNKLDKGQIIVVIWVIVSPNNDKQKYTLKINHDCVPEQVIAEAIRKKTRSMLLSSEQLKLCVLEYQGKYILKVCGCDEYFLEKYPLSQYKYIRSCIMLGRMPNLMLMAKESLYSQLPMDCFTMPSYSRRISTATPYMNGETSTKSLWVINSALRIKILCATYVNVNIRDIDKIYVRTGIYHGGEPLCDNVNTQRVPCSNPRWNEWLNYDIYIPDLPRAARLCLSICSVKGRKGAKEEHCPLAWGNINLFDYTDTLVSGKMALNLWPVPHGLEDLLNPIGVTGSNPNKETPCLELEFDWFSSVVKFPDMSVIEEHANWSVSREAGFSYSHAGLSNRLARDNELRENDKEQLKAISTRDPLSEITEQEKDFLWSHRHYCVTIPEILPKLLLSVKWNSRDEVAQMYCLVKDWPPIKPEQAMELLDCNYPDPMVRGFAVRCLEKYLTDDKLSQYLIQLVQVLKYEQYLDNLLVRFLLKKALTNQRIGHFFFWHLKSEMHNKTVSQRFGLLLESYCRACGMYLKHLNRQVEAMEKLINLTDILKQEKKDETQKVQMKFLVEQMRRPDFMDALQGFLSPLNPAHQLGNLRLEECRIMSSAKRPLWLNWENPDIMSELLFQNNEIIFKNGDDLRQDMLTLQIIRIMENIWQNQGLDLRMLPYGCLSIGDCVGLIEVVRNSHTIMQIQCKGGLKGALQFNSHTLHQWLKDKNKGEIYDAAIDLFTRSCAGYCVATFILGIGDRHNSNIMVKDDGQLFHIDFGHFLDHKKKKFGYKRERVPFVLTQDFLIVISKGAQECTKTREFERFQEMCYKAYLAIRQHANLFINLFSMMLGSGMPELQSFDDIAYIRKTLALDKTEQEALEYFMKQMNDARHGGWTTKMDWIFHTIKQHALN
H1047R PIK3CA enzyme, sequence (P27986 whole entry partner): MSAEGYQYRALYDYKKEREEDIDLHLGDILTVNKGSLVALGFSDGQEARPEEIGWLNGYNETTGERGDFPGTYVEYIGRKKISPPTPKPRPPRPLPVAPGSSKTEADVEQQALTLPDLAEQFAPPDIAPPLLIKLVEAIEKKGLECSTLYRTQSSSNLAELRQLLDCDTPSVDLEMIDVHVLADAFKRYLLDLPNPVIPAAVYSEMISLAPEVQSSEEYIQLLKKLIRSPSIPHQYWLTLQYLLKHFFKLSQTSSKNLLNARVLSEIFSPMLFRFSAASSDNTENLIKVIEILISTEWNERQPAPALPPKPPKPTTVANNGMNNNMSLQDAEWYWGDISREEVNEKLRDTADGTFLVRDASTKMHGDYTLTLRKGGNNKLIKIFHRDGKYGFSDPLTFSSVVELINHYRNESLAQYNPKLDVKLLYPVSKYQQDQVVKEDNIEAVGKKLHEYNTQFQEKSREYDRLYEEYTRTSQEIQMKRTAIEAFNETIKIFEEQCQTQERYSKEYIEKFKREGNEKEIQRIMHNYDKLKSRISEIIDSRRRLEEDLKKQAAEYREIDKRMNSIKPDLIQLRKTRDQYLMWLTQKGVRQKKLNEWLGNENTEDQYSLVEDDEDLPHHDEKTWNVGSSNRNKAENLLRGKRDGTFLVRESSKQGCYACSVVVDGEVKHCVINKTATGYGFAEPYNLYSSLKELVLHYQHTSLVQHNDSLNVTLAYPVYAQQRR

| IC50 | Structure (SMILES) |
| --- | --- |
| 1 to 10 µM | Cc1ccccc1Nc1ncc(NCC(N)=O)cc1NC(=O)c1cc(F)cc(C(F)(F)F)c1 [I-186] |
| 10 to 100 µM | CNC(=O)c1cnc(Nc2ccccc2C)c(NC(=O)c2nc(SC)ncc2Cl)c1 [I-187] |
| 1 to 10 µM | CNC(=O)c1cnc(Nc2ccccc2C)c(NC(=O)c2cc(F)cc(C3CC3)c2)c1 [I-188] |
| 0.5 to 1 µM | Cc1ccccc1Nc1ncc(C(=O)NCC2(O)CCCCC2)cc1NC(=O)c1csc2ccccc12 [I-189] |
| 0.5 to 1 µM | Cc1ccccc1Nc1ncc(C(=O)Nc2cc[nH]c(=O)n2)cc1NC(=O)c1csc2ccccc12 [I-194] |
| 10 to 100 µM | CNC(=O)c1cnc(Nc2ccnc(C)c2)c(NC(=O)c2cc(F)cc(C(F)(F)F)c2)c1 [I-200] |
| 10 to 100 µM | CNC(=O)c1cnc(Nc2ccc(C)nc2)c(NC(=O)c2cc(F)cc(C(F)(F)F)c2)c1 [I-201] |
| 10 to 100 µM | CNC(=O)c1cnc(N2CC3CCCN3CC2C)c(NC(=O)c2cc(F)cc(C(F)(F)F)c2)c1 (stereo not drawn) [I-202] |
| 10 to 100 µM | CNC(=O)c1cnc(N)c(NC(=O)c2cc(F)cc(C(F)(F)F)c2)c1 [I-204] |
| 10 to 100 µM | CNC(=O)c1cnc(Nc2ccccc2C)c(NC(=O)c2ccc3c(n2)CCCN3)c1 [I-205] |
| 10 to 100 µM | COC(=O)c1cnc(Nc2ccc(C)cc2)c(NC(=O)c2csc3ccccc23)c1 [I-206] |
| 1 to 10 µM | CNC(=O)c1cnc(Nc2ccccc2C)c(NC(=O)c2cn(C)c3ccccc23)c1 [I-207] |
| 10 to 100 µM | CNC(=O)c1cnc(Nc2ccccc2C)c(NC(=O)c2csc(Cl)c2Cl)c1 [I-213] |
| 10 to 100 µM | CNC(=O)c1cnc(Nc2ccccc2CN)c(NC(=O)c2csc3ccccc23)c1 [I-214] |
| 1 to 10 µM | CC1CCc2ccccc2N1c1ncc(C(=O)NC2CS(=O)(=O)C2)cc1NC(=O)c1csc2ccccc12 (stereo not drawn) [I-216] |
| 1 to 10 µM | CC1CCc2ccccc2N1c1ncc(C(=O)NCc2nccs2)cc1NC(=O)c1csc2ccccc12 (stereo not drawn) [I-217] |
| 10 to 100 µM | CNC(=O)c1cnc(N2c3ccccc3CCC2C)c(NC(=O)c2csc3ccccc23)c1 (stereo not drawn) [I-218] |
| 1 to 10 µM | Cc1ccccc1Nc1cnccc1NC(=O)c1cc(F)cc(C(F)(F)F)c1 [I-220] |
| 1 to 10 µM | Cc1ccccc1Nc1cnccc1NC(=O)c1csc2ccccc12 [I-221] |
| 1 to 10 µM | Cc1ccc(Nc2ncc(C(=O)NC3CS(=O)(=O)C3)cc2NC(=O)c2csc3ccccc23)cc1 [I-222] |
| 1 to 10 µM | Cc1ccc(Nc2ncc(C(=O)NCc3ccn(C)n3)cc2NC(=O)c2csc3ccccc23)cc1 [I-223] |
| 10 to 100 µM | Cc1ccc(Nc2ncc(C(=O)NCc3cnn(C)c3)cc2NC(=O)c2csc3ccccc23)cc1 [I-224] |

| IC50 | Structure (SMILES) |
| --- | --- |
| 1 to 10 µM | Cc1ccc(Nc2ncc(C(=O)NCc3nccs3)cc2NC(=O)c2csc3ccccc23)cc1 [I-225] |
| 10 to 100 µM | CNC(=O)c1cnc(Nc2ccc(C)cc2)c(NC(=O)c2csc3ccccc23)c1 [I-226] |
| 1 to 10 µM | Cc1ccccc1Nc1ncc(C(=O)Nc2cc[nH]n2)cc1NC(=O)c1cc(F)cc(C(F)(F)F)c1 [I-230] |
| 1 to 10 µM | Cc1ccccc1Nc1ncc(C(=O)Nc2ccccc2)cc1NC(=O)c1cc(F)cc(C(F)(F)F)c1 [I-231] |
| 10 to 100 µM | CNC(=O)c1cnc(Nc2ccccc2C)c(NC(=O)c2nccc3ccccc23)c1 [I-233] |
| 0.5 to 1 µM | Cc1ccccc1Nc1ncc(C(=O)Nc2ccn(C)n2)cc1NC(=O)c1cc(F)cc(C(F)(F)F)c1 [I-235] |
| 10 to 100 µM | CNC(=O)c1cnc(Nc2ccccc2C)c(NC(=O)c2ccc(F)c3ccccc23)c1 [I-236] |
| 10 to 100 µM | CNC(=O)c1cnc(Nc2ccccc2C)c(NC(=O)c2cccc3cnccc23)c1 [I-237] |
| 10 to 100 µM | CNC(=O)c1cnc(Nc2ccccc2C)c(NC(=O)c2cccc3ccncc23)c1 [I-238] |
| 10 to 100 µM | CNC(=O)c1cnc(Nc2ccccc2C)c(NC(=O)c2csc(C(F)(F)F)n2)c1 [I-241] |
| 10 to 100 µM | CNC(=O)c1cnc(Nc2ccccc2C)c(NC(=O)c2csc(C)n2)c1 [I-242] |
| 10 to 100 µM | CNC(=O)c1cnc(Nc2ccccc2C)c(NC(=O)c2csc(N)n2)c1 [I-243] |
| 10 to 100 µM | CNC(=O)c1cnc(N2CCNc3ccccc32)c(NC(=O)c2csc3ccccc23)c1 [I-244] |
| 10 to 100 µM | CNC(=O)c1cnc(Nc2ccccc2C)c(NC(=O)Cc2cccnc2)c1 [I-250] |
| 10 to 100 µM | CNC(=O)c1cnc(Nc2ccccc2C)c(NC(=O)C2CCOc3ccccc32)c1 (stereo not drawn) [I-259] |
| 10 to 100 µM | CNC(=O)c1cnc(Nc2ccccc2C)c(NC(=O)C2CCSc3ccccc32)c1 (stereo not drawn) [I-260] |
| 1 to 10 µM | Cc1ccc(Nc2ncc(C(=O)NCc3ccnn3C)cc2NC(=O)c2csc3ccccc23)cc1 [I-261] |
| 0.5 to 1 µM | Cc1ccccc1Nc1ncc(C(=O)Nc2ccncn2)cc1NC(=O)c1cc(F)cc(C(F)(F)F)c1 [I-262] |
| 1 to 10 µM | Cc1ccc(NC(=O)c2cnc(Nc3ccccc3C)c(NC(=O)c3cc(F)cc(C(F)(F)F)c3)c2)nc1 [I-263] |
| 1 to 10 µM | Cc1cnnc(NC(=O)c2cnc(Nc3ccccc3C)c(NC(=O)c3cc(F)cc(C(F)(F)F)c3)c2)c1 [I-264] |
| 0.5 to 1 µM | Cc1ccccc1Nc1ncc(C(=O)Nc2cncnc2)cc1NC(=O)c1cc(F)cc(C(F)(F)F)c1 [I-265] |
| 0.5 to 1 µM | Cc1ccccc1Nc1ncc(N2CCNCC2)cc1NC(=O)c1cc(F)cc(C(F)(F)F)c1 [I-268] |

| IC50 | Structure (SMILES) |
| --- | --- |
| 1 to 10 µM | CNC(=O)c1cnc(Nc2ncccc2C)c(NC(=O)c2cc(F)cc(C(F)(F)F)c2)c1 [I-269] |
| 1 to 10 µM | Cc1ccccc1Nc1ncc(N2CCN(C(=O)OC(C)(C)C)CC2)cc1NC(=O)c1cc(F)cc(C(F)(F)F)c1 [I-270] |
| 1 to 10 µM | COCCn1cc(NC(=O)c2csc3ccccc23)c(N2CCOc3ccccc32)cc1=O [I-271] |
| 1 to 10 µM | Cn1cc(NC(=O)c2csc3ccccc23)c(N2CCOc3ccccc32)cc1=O [I-272] |
| 1 to 10 µM | Cn1cc(NC(=O)c2cc(F)cc(C(F)(F)F)c2)c(N2CCOc3ccccc32)cc1=O [I-273] |
| 10 to 100 µM | O=C(NC1CS(=O)(=O)C1)c1cnc(N2CCCOc3ccccc32)c(NC(=O)c2csc3ccccc23)c1 [I-277] |
| 1 to 10 µM | Cc1ccccc1Nc1cc(=O)n(C)cc1NC(=O)c1csc2ccccc12 [I-280] |
| 10 to 100 µM | CNC(=O)c1cnc(N2CCNCc3ccccc32)c(NC(=O)c2cc(F)cc(C(F)(F)F)c2)c1 [I-281] |
| 1 to 10 µM | CNC(=O)c1cnc(N2CCC(C)c3ccccc32)c(NC(=O)c2cc(F)cc(C(F)(F)F)c2)c1 (stereo not drawn) [I-282] |
| 10 to 100 µM | CNC(=O)c1cnc(Nc2ccccc2C)c(NC(=O)c2csc3ncccc23)c1 [I-283] |
| 10 to 100 µM | CCn1cccc(C(=O)Nc2cc(C(=O)NC)cnc2Nc2ccccc2C)c1=O [I-284] |
| 10 to 100 µM | CNC(=O)c1cnc(Nc2ccccc2C)c(NC(=O)Cc2ccccc2S(C)(=O)=O)c1 [I-306] |
| 10 to 100 µM | CNC(=O)c1cnc(Nc2ccccc2C)c(NC(=O)c2cc(F)cc(-c3ccccc3)c2)c1 [I-318] |
| 10 to 100 µM | CNC(=O)c1cnc(Nc2ccccc2C)c(NC(=O)c2cc(F)cc3cccnc23)c1 [I-319] |
| 10 to 100 µM | CNC(=O)c1cnc(Nc2ccccc2C)c(NC(=O)c2cc(F)cc3ccccc23)c1 [I-320] |
| 10 to 100 µM | O=C(Nc1cccc(=O)n1Cc1ccccc1)c1csc2ccccc12 [I-321] |
| 10 to 100 µM | CNC(=O)c1cnc(Nc2ccccc2C)c(NC(=O)c2cc(F)c3ccccc3c2)c1 [I-322] |
| 10 to 100 µM | CNC(=O)c1cnc(NCc2cncn2C)c(NC(=O)c2cc(F)cc(C(F)(F)F)c2)c1 [I-323] |
| 10 to 100 µM | Cc1ccccc1NC(=O)c1cc(NC(=O)c2cc(F)cc(C(F)(F)F)c2)c(Nc2ccccc2C)cn1 [I-324] |
| 1 to 10 µM | CNC(=O)c1cc(NC(=O)c2cc(F)cc(C(F)(F)F)c2)c(N(C)c2ccccc2C)cn1 [I-325] |
| 10 to 100 µM | CNC(=O)c1cnc(Nc2ccccc2C)c(Nc2cc(F)c3cn[nH]c3c2)c1 [I-327] |
| 10 to 100 µM | CNC(=O)c1cnc(Nc2ccccc2C)c(NC(=O)c2c(C)sc3ccccc23)c1 [I-328] |

| IC50 | Structure (SMILES) |
| --- | --- |
| 10 to 100 µM | CNC(=O)c1cnc(Nc2ccccc2C)c(NC(=O)C2(c3ccccn3)CC2)c1 [I-333] |
| 10 to 100 µM | CNC(=O)c1cnc(Nc2ccccc2C)c(NC(=O)C2(c3cccnc3)CC2)c1 [I-334] |
| 1 to 10 µM | O=C(Nc1cc(C(=O)NC2CC(F)(F)C2)cnc1N1C(=O)NCc2ccccc21)c1cc(F)cc(C(F)(F)F)c1 [I-338] |
| 1 to 10 µM | CNC(=O)c1cnc(Nc2ccccc2C)c(NC(=O)c2csc3c2CCCC3)c1 [I-340] |
| 1 to 10 µM | CNC(=O)c1cnc(Nc2ccccc2C)c(NC(=O)c2csc3c2CCC3)c1 [I-341] |
| 10 to 100 µM | CNC(=O)c1cnc(Nc2ccccc2C)c(NC(=O)C2(c3ccccc3)CC2(F)F)c1 (stereo not drawn) [I-342] |
| 1 to 10 µM | Cc1ccccc1Nc1ccncc1NC(=O)c1csc2ccccc12 [I-344] |
| 1 to 10 µM | CNC(=O)c1cnc(Nc2cccc(OC)n2)c(NC(=O)c2csc3ccccc23)c1 [I-346] |
| 1 to 10 µM | Cc1ccccc1Nc1ncc(C(O)CO)cc1NC(=O)c1cc(F)cc(C(F)(F)F)c1 (stereo not drawn) [I-351] |
| 1 to 10 µM | CNC(=O)c1cnc(Nc2ccccc2C)c(NC(=O)c2csc3cc(C)ccc23)c1 [I-354] |
| 10 to 100 µM | CNC(=O)c1cnc(Nc2ccccc2C)c(NC(=O)c2csc3cc(OC)ccc23)c1 [I-355] |
| 10 to 100 µM | Cc1ccccc1Nc1ncc(C(=O)NC2CS(=O)(=O)C2)cc1NC(=O)c1cncc2ccccc12 [I-356] |
| 10 to 100 µM | Cc1ccccc1Nc1ncc(C(=O)NC2CS(=O)(=O)C2)cc1NC(=O)c1cc2ccccc2o1 [I-357] |
| 10 to 100 µM | CNC(=O)c1cnc(NCCOC)c(NC(=O)c2cc(F)cc(C(F)(F)F)c2)c1 [I-358] |
| 10 to 100 µM | CNC(=O)c1cnc(NC2CCCCC2)c(NC(=O)c2cc(F)cc(C(F)(F)F)c2)c1 [I-359] |
| 10 to 100 µM | CNC(=O)c1cnc(NC2CCCC2)c(NC(=O)c2cc(F)cc(C(F)(F)F)c2)c1 [I-360] |
| 1 to 10 µM | Cc1ccccc1Nc1cc(=O)n(CC(=O)NCC2CC(F)(F)C2)cc1NC(=O)c1csc2ccccc12 [I-363] |
| 1 to 10 µM | CNC(=O)c1cnc(Nc2ccccc2C)c(NC(=O)c2cc(F)cc(OC(F)F)c2)c1 [I-364] |
| 10 to 100 µM | CNC(=O)c1cnc(Nc2ccccc2C)c(NC(=O)c2cnccc2C(F)(F)F)c1 [I-365] |
| 10 to 100 µM | CNC(=O)c1cnc(Nc2ccccc2C)c(NC(=O)c2ccnc(C(F)(F)F)c2)c1 [I-366] |
| 10 to 100 µM | CNC(=O)c1cnc(Nc2ccccc2C)c(NC(=O)c2nc3ccccc3n(C)c2=O)c1 [I-368] |
